Reference: US9694016B2 (Novartis AG, priority 2013, dated 2017)

These compounds were tested against b-Raf (V600E) (Homo sapiens (Human), UniProt P15056, V600E). Details: read-out: b-Raf IC-50; AlphaScreen, 60 min pre-incubation, 3 hours reaction.
Chain of b-Raf (V600E) (P15056 whole entry V600E): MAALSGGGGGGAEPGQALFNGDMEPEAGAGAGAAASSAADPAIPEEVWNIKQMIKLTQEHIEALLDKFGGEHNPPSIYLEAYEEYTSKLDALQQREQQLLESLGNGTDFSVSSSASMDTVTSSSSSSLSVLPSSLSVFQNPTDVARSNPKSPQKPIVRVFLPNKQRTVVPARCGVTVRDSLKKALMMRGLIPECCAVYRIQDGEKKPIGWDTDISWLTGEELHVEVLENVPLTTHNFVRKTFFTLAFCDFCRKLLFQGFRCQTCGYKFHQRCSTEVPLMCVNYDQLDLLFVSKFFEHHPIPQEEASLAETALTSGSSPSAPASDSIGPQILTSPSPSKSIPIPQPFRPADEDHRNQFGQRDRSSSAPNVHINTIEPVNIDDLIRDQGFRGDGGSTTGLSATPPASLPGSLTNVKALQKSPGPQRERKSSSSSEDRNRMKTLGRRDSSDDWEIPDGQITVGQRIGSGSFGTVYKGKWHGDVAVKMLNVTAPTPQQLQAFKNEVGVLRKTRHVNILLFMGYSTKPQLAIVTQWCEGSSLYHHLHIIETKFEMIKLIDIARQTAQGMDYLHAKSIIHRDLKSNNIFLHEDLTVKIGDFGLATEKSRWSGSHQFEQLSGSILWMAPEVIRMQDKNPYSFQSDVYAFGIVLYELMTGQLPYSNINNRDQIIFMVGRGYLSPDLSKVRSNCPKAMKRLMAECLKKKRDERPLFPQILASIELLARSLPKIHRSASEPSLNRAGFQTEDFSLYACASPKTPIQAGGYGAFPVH
Work on `Cc1ccc(NC(=O)c2cccc(C(F)(F)F)c2)cc1-c1nc(N2CCOCC2)c2[nH]ccc2n1` [Example 830, N-(4-methyl-3-(4-morpholino-5H-pyrrolo[3,2-d]pyrimidin-2-yl)phenyl)-3-(trifluoromethyl)benzamide] yielded an IC50 of 0.6 nM.
`Cc1ccc(NC(=O)c2cccc(C(F)(F)F)c2)cc1-c1nc(N2CCOCC2)c2cccnc2n1` [Example 833, N-(4-methyl-3-(4-morpholinopyrido[2,3-d]pyrimidin-2-yl)phenyl)-3-(trifluoromethyl)benzamide] showed an IC50 of 1.7 nM.
`Cc1ccc(NC(=O)c2cccc(C(F)(F)F)c2)cc1-c1nc2c(c(N3CCOCC3)n1)CNCC2` [Example 835, N-(4-methyl-3-(4-morpholino-5,6,7,8-tetrahydropyrido[4,3-d]pyrimidin-2-yl)phenyl)-3-(trifluoromethyl)benzamide] showed an IC50 of 2.1 nM.
In the case of `Cc1ccc(NC(=O)c2cccc(C(F)(F)F)c2)cc1-c1nc2c(c(N3CCOCC3)n1)CNC2` [Example 836, N-(4-methyl-3-(4-morpholino-6,7-dihydro-5H-pyrrolo[3,4-d]pyrimidin-2-yl)phenyl)-3-(trifluoromethyl)benzamide], the IC50 is reported as 3.1 nM.
`Cc1ccc(NC(=O)c2cccc(C(F)(F)F)c2)cc1-c1nc(N2CCOCC2)c2c(cnn2C)n1` [Example 837, N-(4-methyl-3-(1-methyl-7-morpholino-1H-pyrazolo[4,3-d]pyrimidin-5-yl)phenyl)-3-(trifluoromethyl)benzamide] was tested, and the IC50 was 0.2 nM.
With `Cc1ccc(NC(=O)c2cccc(C(F)(F)F)c2)cc1-c1nc(N2CCOCC2)c2occc2n1` [Example 838, N-(4-methyl-3-(4-morpholinofuro[3,2-d]pyrimidin-2-yl)phenyl)-3-(trifluoromethyl)benzamide] the IC50 was 0.9 nM.
`Cc1ccc(NC(=O)c2cccc(C(F)(F)F)c2)cc1-c1nc(N2CCOCC2)c2ncsc2n1` [Example 839, N-(4-methyl-3-(7-morpholinothiazolo[5,4-d]pyrimidin-5-yl)phenyl)-3-(trifluoromethyl)benzamide] gave an IC50 of 0.9 nM.
Compound `Cc1ccc(NC(=O)c2cccc(C(F)(F)F)c2)cc1-c1nc(N2CCOCC2)c2cnn(C)c2n1` [Example 840, N-(4-methyl-3-(1-methyl-4-morpholino-1H-pyrazolo[3,4-d]pyrimidin-6-yl)phenyl)-3-(trifluoromethyl)benzamide] has an IC50 of 0.6 nM.
Work on `Cc1ccc(NC(=O)c2ccnc(C(C)(C)O)c2)cc1-c1cc(N2CCOCC2)c2nccn2n1` [Example 841, 2-(2-hydroxypropan-2-yl)-N-(4-methyl-3-(8 morpholinoimidazo[1,2-b]pyridazin-6-yl)phenyl)isonicotinamide] yielded an IC50 of 1.7 nM.
For `Cc1ccc(NC(=O)c2ccnc(C(C)C)c2)cc1-c1cc(N2CCOCC2)c2nccn2n1` [Example 842, 2-isopropyl-N-(4-methyl-3-(8-morpholinoimidazo[1,2-b]pyridazin-6-yl)phenyl)isonicotinamide], the IC50 was 1.3 nM.
In the case of `Cc1ccc(NC(=O)c2ccnc(C(C)(F)F)c2)cc1-c1cc(N2CCOCC2)c2nccn2n1` [Example 843, 2-(1,1-difluoroethyl)-N-(4-methyl-3-(8-morpholinoimidazo[1,2-b]pyridazin-6-yl)phenyl)isonicotinamide], the IC50 is reported as 0.8 nM.
`Cc1ccc(NC(=O)c2ccnc(C(C)(C)C#N)c2)cc1-c1cc(N2CCOCC2)c2nccn2n1` [Example 844, 2-(2-cyanopropan-2-yl)-N-(4-methyl-3-(8-morpholinoimidazo[1,2-b]pyridazin-6-yl)phenyl)isonicotinamide] was tested, and the IC50 was 1.7 nM.
With `Cc1ccc(NC(=O)c2ccnc(C(C)(C)C)c2)cc1-c1cc(N2CCOCC2)c2nccn2n1` [Example 845, 2-(tert-butyl)-N-(4-methyl-3-(8-morpholinoimidazo[1,2-b]pyridazin-6-yl)phenyl)isonicotinamide] the IC50 was 0.9 nM.
`Cc1ccc(NC(=O)c2cccc(C(C)(C)C#N)c2)cc1-c1cc(N2CCOCC2)c2nccn2n1` [Example 846, 3-(2-cyanopropan-2-yl)-N-(4-methyl-3-(8-morpholinoimidazo[1,2-b]pyridazin-6-yl)phenyl)benzamide] was tested, and the IC50 was 0.6 nM.
With `Cc1ccc(NC(=O)c2cccc(C(F)F)c2)cc1-c1cc(N2CCOCC2)c2nccn2n1` [Example 847, 3-(difluoromethyl)-N-(4-methyl-3-(8-morpholinoimidazo[1,2-b]pyridazin-6-yl)phenyl)benzamide] the IC50 was 0.2 nM.

Same assay, conditions: read-out: b-Raf IC-50; AlphaScreen, 60 min pre-incubation, reaction 3 hours at room temperature
`Cc1ccc(NC(=O)c2ccnc(C(F)(F)F)c2)cc1-c1cc(N2CCOCC2)c2nccn2c1` [Example 849, N-(4-methyl-3-(8-morpholinoimidazo[1,2-a]pyridin-6-yl)phenyl)-2-(trifluoromethyl)isonicotinamide] gave an IC50 of 3.8 nM.
In the case of `Cc1ccc(NC(=O)c2ccnc(C(F)F)c2)cc1-c1cc(N2CCOCC2)c2nccn2c1` [Example 850, 2-(difluoromethyl)-N-(4-methyl-3-(8-morpholinoimidazo[1,2-a]pyridin-6-yl)phenyl)isonicotinamide], the IC50 is reported as 0.6 nM.
In the case of `Cc1ccc(NC(=O)c2ccnc(S(C)(=O)=O)c2)cc1-c1cc(N2CCOCC2)c2nccn2c1` [Example 851], the IC50 is reported as 0.9 nM.
`Cc1ccc(NC(=O)c2cnnc(C(F)(F)F)c2)cc1-c1cc(N2CCOCC2)c2nccn2c1` [Example 852] was tested, and the IC50 was 0.7 nM.
`Cc1ccc(NC(=O)c2cccc(C(F)F)c2)cc1-c1nc2c(c(N3CCOCC3)n1)S(=O)(=O)CC2` [Example 854, 3-(difluoromethyl)-N-(4-methyl-3-(4-morpholino-5,5-dioxido-6,7-dihydrothieno[3,2-d]pyrimidin-2-yl)phenyl)benzamide] was tested, and the IC50 was 0.8 nM.
`Cc1ccc(NC(=O)c2ccnc(C(C)(C)C#N)c2)cc1-c1nc2c(c(N3CCOCC3)n1)S(=O)(=O)CC2` [Example 855, 2-(2-cyanopropan-2-yl)-N-(4-methyl-3-(4-morpholino-5,5-dioxido-6,7-dihydrothieno[3,2-d]pyrimidin-2-yl)phenyl)isonicotinamide] was tested, and the IC50 was 2.3 nM.
`Cc1ccc(NC(=O)c2ccnc(C(F)F)c2)cc1-c1nc2c(c(N3CCOCC3)n1)S(=O)(=O)CC2` [Example 856, 2-(difluoromethyl)-N-(4-methyl-3-(4-morpholino-5,5-dioxido-6,7-dihydrothieno[3,2-d]pyrimidin-2-yl)phenyl)isonicotinamide] showed an IC50 of 5.5 nM.
`Cc1ccc(NC(=O)c2cccc(C(F)(F)F)c2)cc1-c1nc2c(c(N3CCOCC3)n1)S(=O)(=O)CC2` [Example 857, N-(4-methyl-3-(4-morpholino-5,5-dioxido-6,7-dihydrothieno[3,2-d]pyrimidin-2-yl)phenyl)-3-(trifluoromethyl)benzamide] gave an IC50 of 0.4 nM.
Compound `Cc1ccc(NC(=O)c2ccnc(C(C)(C)C#N)c2)cc1-c1cn2ccnc2c(N2CCOCC2)n1` [Example 860, 2-(2-cyanopropan-2-yl)-N-(4-methyl-3-(8-morpholinoimidazo[1,2-a]pyrazin-6-yl)phenyl)isonicotinamide] has an IC50 of 11.6 nM.
`Cc1ccc(NC(=O)c2ccnc(C(C)(C)C#N)c2)cc1-c1nc(N2CCOCC2)c2c(cnn2C)n1` [Example 861, 2-(2-cyanopropan-2-yl)-N-(4-methyl-3-(1-methyl-7-morpholino-1H-pyrazolo[4,3-d]pyrimidin-5-yl)phenyl)isonicotinamide] was tested, and the IC50 was 2.5 nM.
`Cc1ccc(NC(=O)c2ccnc(C(C)(C)C#N)c2)cc1-c1nc(N2CCOCC2)c2sccc2n1` [Example 862, 2-(2-cyanopropan-2-yl)-N-(4-methyl-3-(4-morpholinothieno[3,2-d]pyrimidin-2-yl)phenyl)isonicotinamide] showed an IC50 of 0.9 nM.
Work on `Cc1ccc(NC(=O)c2ccnc(C(C)(C)C#N)c2)cc1-c1nc(N2CCOCC2)c2[nH]ccc2n1` [Example 863, 2-(2-cyanopropan-2-yl)-N-(4-methyl-3-(4-morpholino-5H-pyrrolo[3,2-d]pyrimidin-2-yl)phenyl)isonicotinamide] yielded an IC50 of 2.8 nM.
Work on `Cc1ccc(NC(=O)c2ccnc(C(C)(C)C#N)c2)cc1-c1nc2c(c(N3CCOCC3)n1)CN(C(=O)OC(C)(C)C)CC2` [Example 864, tert-butyl 2-(5-(2-(2-cyanopropan-2-yl)isonicotinamido)-2-methylphenyl)-4-morpholino-7,8-dihydropyrido[4,3-d]pyrimidine-6(5H)-carboxylate] yielded an IC50 of 70.2 nM.
`Cc1ccc(NC(=O)c2ccnc(C(C)(C)C#N)c2)cc1-c1nc2c(c(N3CCOCC3)n1)CCNC2` [Example 865, 2-(2-cyanopropan-2-yl)-N-(4-methyl-3-(4-morpholino-5,6,7,8-tetrahydropyrido[3,4-d]pyrimidin-2-yl)phenyl)isonicotinamide] showed an IC50 of 3700 nM.
`Cc1ccc(NC(=O)c2ccnc(C(C)(C)C#N)c2)cc1-c1nc2c(c(N3CCOCC3)n1)CNC2` [Example 866, 2-(2-cyanopropan-2-yl)-N-(4-methyl-3-(4-morpholino-6,7-dihydro-5H-pyrrolo[3,4-d]pyrimidin-2-yl)phenyl)isonicotinamide] gave an IC50 of 7.6 nM.
Compound `Cc1ncc(NC(=O)c2cccc(C(F)(F)F)c2)cc1-c1cc(N2CCOCC2)c2nccn2n1` [Example 867, N-(6-methyl-5-(8-morpholinoimidazo[1,2-b]pyridazin-6-yl)pyridin-3-yl)-3-(trifluoromethyl)benzamide] has an IC50 of 1.4 nM.
With `Cc1ncc(NC(=O)c2cc(C(F)(F)F)ccn2)cc1-c1cc(N2CCOCC2)c2nccn2n1` [Example 868, N-(6-methyl-5-(8-morpholinoimidazo[1,2-b]pyridazin-6-yl)pyridin-3-yl)-4-(trifluoromethyl)picolinamide] the IC50 was 1.3 nM.
Work on `Cc1ncc(NC(=O)c2ccnc(C(C)C)c2)cc1-c1cc(N2CCOCC2)c2nccn2n1` [Example 869, 2-isopropyl-N-(6-methyl-5-(8-morpholinoimidazo[1,2-b]pyridazin-6-yl)pyridin-3-yl)isonicotinamide] yielded an IC50 of 1.3 nM.
Work on `Cc1ncc(NC(=O)c2ccnc(C(C)(C)O)c2)cc1-c1cc(N2CCOCC2)c2nccn2n1` [Example 870, 2-(2-hydroxypropan-2-yl)-N-(6-methyl-5-(8-morpholinoimidazo[1,2-b]pyridazin-6-yl)pyridin-3-yl)isonicotinamide] yielded an IC50 of 7.5 nM.
Work on `Cc1ncc(NC(=O)c2ccnc(C(C)(F)F)c2)cc1-c1cc(N2CCOCC2)c2nccn2n1` [Example 871, 2-(1,1-difluoroethyl)-N-(6-methyl-5-(8-morpholinoimidazo[1,2-b]pyridazin-6-yl)pyridin-3-yl)isonicotinamide] yielded an IC50 of 0.6 nM.
